Experimental data taken from publication PMC13198932, “Pyrazolone-based ERO1 inhibitors in ERO1-driven triple-negative breast cancer and SEPN1-related myopathy: Structure–activity relationship and therapeutic potential” (Pharmacological research, 2025).
Entries after “also recorded” stand apart in the source; their conditions may differ. Where two headings read alike, the source gives them in different places.

Legend:
[1] = target: T1, recombinant ERO1A (Mus musculus, UniProt Q8R180); set-up: method as in PMID 39962052; conditions: SAR of I1–I23, Fig. 8A; cited from earlier work
T1 construct: GST-SMT3-mouse ERO1A (residues 43–464); GST-SMT3 (GST-SUMO) (N, cleaved yes); made in house; host or cells: E. coli Rosetta DE3 (Novagen)
T1 sequence (Q8R180 43-464): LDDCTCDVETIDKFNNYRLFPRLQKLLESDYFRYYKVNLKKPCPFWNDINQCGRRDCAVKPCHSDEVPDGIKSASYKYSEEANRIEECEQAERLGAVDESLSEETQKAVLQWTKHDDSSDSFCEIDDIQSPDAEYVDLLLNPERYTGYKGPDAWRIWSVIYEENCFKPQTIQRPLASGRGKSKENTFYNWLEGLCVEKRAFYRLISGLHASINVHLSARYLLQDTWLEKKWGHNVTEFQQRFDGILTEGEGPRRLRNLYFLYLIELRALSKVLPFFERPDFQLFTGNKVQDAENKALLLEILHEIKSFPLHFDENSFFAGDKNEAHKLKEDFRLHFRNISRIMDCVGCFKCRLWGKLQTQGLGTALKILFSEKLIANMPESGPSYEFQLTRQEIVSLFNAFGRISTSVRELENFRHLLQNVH

[2] = target: recombinant PDI (Homo sapiens, UniProt P07237); assay: PDI activity assay (insulin transhydrogenase / insulin turbidity assay); format: biochemical; conditions: 25 μM, 15 min incubation
Chain of recombinant PDI (P07237 18-508, species assumed): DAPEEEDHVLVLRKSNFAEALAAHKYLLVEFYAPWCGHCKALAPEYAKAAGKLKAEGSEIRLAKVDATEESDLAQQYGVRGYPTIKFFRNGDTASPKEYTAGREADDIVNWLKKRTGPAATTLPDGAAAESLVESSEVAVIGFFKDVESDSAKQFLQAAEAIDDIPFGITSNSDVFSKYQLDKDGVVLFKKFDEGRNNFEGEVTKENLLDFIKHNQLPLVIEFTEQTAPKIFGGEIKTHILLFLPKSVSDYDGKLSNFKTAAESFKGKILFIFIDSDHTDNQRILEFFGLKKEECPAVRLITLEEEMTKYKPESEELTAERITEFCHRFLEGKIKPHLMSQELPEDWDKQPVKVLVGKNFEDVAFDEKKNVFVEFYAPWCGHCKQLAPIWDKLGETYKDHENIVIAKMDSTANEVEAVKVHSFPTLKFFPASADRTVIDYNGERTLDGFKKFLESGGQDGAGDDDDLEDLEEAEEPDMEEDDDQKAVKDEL
Procedure: PDI activity was assessed using an insulin transhydrogenase assay. Bovine insulin (1 mg/mL) in sodium phosphate buffer, pH 7.0, containing 2 mM EDTA, was incubated with 1.4 μM recombinant PDI in the presence of vehicle (1 % DMSO) or various concentrations of isoquercetin (30 or 60 μM), EN460, I2, I26, or I29 (1, 5, or 25 μM) for 15 min. The turbidimetric assay of insulin disulfide reduction by PDI was initiated by adding 1 mM dithiothreitol, and the reaction was monitored at 650 nm for 80 min. PDI activity is presented as a percentage of the vehicle control.

[3] = target: T2, Human monoamine oxidase A (Mao-A) (Homo sapiens, UniProt P21397); assay: Mao-A activity assay (commercial kit, p-tyramine, H2O2 fluorimetry); format: biochemical; conditions: 25 μM, 10 min incubation
T2 construct: purchased Sigma-Aldrich
T2 sequence (P21397 1-527): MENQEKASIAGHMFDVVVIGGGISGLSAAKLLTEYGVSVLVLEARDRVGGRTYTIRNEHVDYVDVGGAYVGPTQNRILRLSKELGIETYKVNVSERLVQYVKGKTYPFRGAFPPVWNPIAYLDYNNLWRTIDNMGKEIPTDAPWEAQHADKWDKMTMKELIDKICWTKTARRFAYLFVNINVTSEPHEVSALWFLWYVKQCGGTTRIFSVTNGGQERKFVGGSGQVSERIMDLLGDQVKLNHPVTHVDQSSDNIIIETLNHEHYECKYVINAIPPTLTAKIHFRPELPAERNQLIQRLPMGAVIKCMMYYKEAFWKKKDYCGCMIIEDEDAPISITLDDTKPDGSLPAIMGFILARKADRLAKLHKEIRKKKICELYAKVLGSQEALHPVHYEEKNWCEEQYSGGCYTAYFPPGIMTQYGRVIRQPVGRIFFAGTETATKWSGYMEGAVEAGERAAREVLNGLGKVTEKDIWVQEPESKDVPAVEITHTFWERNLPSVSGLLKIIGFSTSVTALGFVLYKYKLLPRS
Procedure: Mao-A activity was measured using a commercial assay kit according to the manufacturer’s instructions. Mao-A (0.837 μM) was incubated with vehicle (1 % DMSO), Clorgyline (50 μM), or various concentrations (1, 5, or 25 μM) of EN460, I2, I26, or I29 for 10 min. Mao-A catalyzes the oxidative deamination of p-tyramine, generating H2O2, which was quantified fluorimetrically (λex= 530; λem= 585 nm). Mao-A activity is presented as a percentage of the vehicle control.

[4] = system: E0771 tumors; set-up: method as in PMID 35853086, PMID 36063727, PMID 33531624, PMID 39962052; conditions: previous studies; cited from earlier work
[5] = system: MDAMB231 cells; assay: MTS assay of metabolic activity in MDAMB231 cells; format: cell-based, human; conditions: MDAMB231, dose-response, 24 h, 1 % FBS
Procedure: Six thousand cells (MDAMB231 and E0771) per well were seeded in 96-well plates and cultured in medium containing 1 % FBS. Cells were treated with varying concentrations of compounds and, after 24 h, incubated with MTS [3-(4,5-dimethylthiazol-2-yl)-5-(3-carboxymethoxyphenyl)-2-(4 sulfophenyl)2Htetrazolium]and PMS (phenazine methosulfate), following the instructions of the CellTiter 96® Aqueous Non-Radioactive Cell Proliferation Assay (Promega). Measurements were performed using a TECAN Infinite M200 plate reader with […] at 490 nm.

[6] = target: T1, recombinant ERO1A; assay: AUR-based kinetic assay of ERO1A activity (recombinant ERO1A and PDIA1, HRP, Amplex Ultra Red); format: biochemical; conditions: for IC50: Table 1 in Fig. 3
Excerpt: A GST-SMT3-mouse ERO1A (residues 43–464) and His-tagged PDIA1 [30] were expressed in the Rosetta DE3 bacteria (Novagen) and purified as described in [29, 31]. The GST-SMT3 and His tags were cleaved using Ulp protease (Z03691, GenScript) and thrombin protease (T6884, Merck), respectively. Successful tag removal was confirmed by a shift to a lower molecular weight for ERO1A on SDS-PAGE and by the absence of signal in anti-His immunoblotting for PDIA1.
The kinetic assay of ERO1A activity is based on a reaction involving recombinant ERO1A and PDIA1 proteins, horseradish peroxidase (Worthington), and 5 μM Amplex Ultra Red, as detailed in [29]. The effect of ERO1A inhibitors was evaluated by preincubating the compounds with ERO1A and measuring the inhibition of the linear reaction rate, and the corresponding IC50 values were determined using Prism 10 (GraphPad).
EN460 and 16 newly synthesized derivatives (I24–I40) (except for I31, which was not evaluated due to potential toxicity associated with its CN group) were evaluated for their ability to inhibit ERO1-dependent AUR fluorescence using a kinetic assay with recombinant ERO1 and PDIA1, as previously described (Figs. 3A and 3B). Raw kinetic data showing AUR fluorescence over time in reactions containing reduced ERO1, PDIA1 and EN460-derivatives are presented in Fig. Sup.1 A and Sup. 1B. Reaction rates, measured in presence or absence of varying concentrations of each compound, were used to calculate IC50 values, defined as the concentration required to inhibit 50 % of ERO1 enzymatic activity (Figs. 3C, 3D and Fig. Sup1C).

[7] = target: T3, ERO1 in MDA-MB-231 breast cancer cells (Homo sapiens, UniProt Q96HE7); assay: ERO1 redox state by non-reducing immunoblot in MDA-MB-231 cells; format: cell-based; conditions: MDA-MB-231, 1–100 μM, in physiological solution or dissolved in DMSO, Fig. 4B
T3 construct: Non-reducing Immunoblot of endogenous ERO1 in lysates of vehicle-treated MDAMB231; endogenous in cells; host or cells: MDA-MB-231
T3 sequence (Q96HE7 24-468): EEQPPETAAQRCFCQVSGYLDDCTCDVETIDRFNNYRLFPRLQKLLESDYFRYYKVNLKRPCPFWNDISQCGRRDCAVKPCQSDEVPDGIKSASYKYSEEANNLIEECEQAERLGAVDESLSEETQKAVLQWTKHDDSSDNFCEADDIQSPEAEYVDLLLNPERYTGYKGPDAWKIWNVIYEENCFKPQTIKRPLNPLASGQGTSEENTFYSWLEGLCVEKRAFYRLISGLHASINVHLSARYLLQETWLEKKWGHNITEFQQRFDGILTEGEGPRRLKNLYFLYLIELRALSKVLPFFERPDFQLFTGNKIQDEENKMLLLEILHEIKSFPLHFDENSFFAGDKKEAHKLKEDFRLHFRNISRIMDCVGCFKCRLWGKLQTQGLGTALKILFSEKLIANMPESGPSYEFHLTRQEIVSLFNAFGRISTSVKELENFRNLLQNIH
Procedure: MDAMB231 and E0771 cells were maintained in Dulbecco’s Modified Eagle’s Medium supplemented with 1 % fetal bovine serum and seeded at 70 % confluency in six-well plates one day prior to the experiment. Cells were treated with DTT (10 mM) and/or ERO1A inhibitors for 1–5 h. At the time of collection, phosphate-buffered saline containing 10 mM NEM was added, and cells were incubated on ice for 10 min in lysis buffer (50 mM Tris-HCl, pH 7.4; 150 mM NaCl; 1 % Triton X-100; 0.1 % SDS; 1 % sodium deoxycholate; protease inhibitors; and 10 mM NEM). Protein concentrations were determined using the BCA assay, and equal amounts of protein were separated by non-reducing SDS-PAGE followed by immunoblotting with a polyclonal antibody against ERO1A [33].

[8] = logarithm of IC50 in μM, compounds dissolved in DMSO, read-out: Log IC50 (confidence intervals) (converted)
[9] = compounds dissolved in DMSO, preincubated with ERO1A, NA stands for not active, read-out: IC50

Compound	ERO1 inhibitory activity (in words) [1]	IC50 [6, 8] [µM]	ERO1 inhibitory activity (in words) ([6]; compounds dissolved in DMSO)	IC50 [6, 9] [µM]	further results
O=C1/C(=C/c2ccc(-c3ccccc3)o2)C(C(F)(F)F)=NN1c1ccc(Cl)cc1 [I1]	inactive	–	–	–	–
O=C1/C(=C/c2ccc(-c3ccccc3)o2)C(C(F)(F)F)=NN1c1ccc(Cl)cc1Cl [I2]	retained activity	–	–	–	IC50 [1]: 8 µM; PDI activity (percentage of the vehicle control) [2]: inhibited PDI activity; Mao-A activity (percentage of the vehicle control) [3]: inhibited Mao-A activity; VEGFA levels [4]: reduced VEGFA levels; metabolic activity (MTS assay) [5]: significantly reduced metabolic activity
O=C(O)c1cccc(N2N=C(C(F)(F)F)/C(=C\c3ccc(-c4ccccc4)o3)C2=O)c1 [I3]	retained activity	–	–	–	IC50 [1]: 3.5 µM
COC(=O)c1cc(N2N=C(C(F)(F)F)/C(=C\c3ccc(-c4ccccc4)o3)C2=O)ccc1Cl [I6]	Inactive	–	–	–	–
O=C(O)c1cc(N2N=C(c3ccccc3)/C(=C\c3ccc(-c4ccccc4)o3)C2=O)ccc1Cl [I10]	abolished the activity	–	–	–	–
CC1=NN(c2ccc(Cl)c(C(=O)O)c2)C(=O)/C1=C/c1ccc(-c2ccccc2)o1 [I14]	abolished the activity	–	–	–	–
O=C1/C(=C/c2ccc(-c3ccccc3)o2)C(C(F)(F)F)=NN1c1cccc2ccccc12 [I24]	–	8.51	–	–	–
Cc1ccccc1N1N=C(C(F)(F)F)/C(=C\c2ccc(-c3ccccc3)o2)C1=O [I25]	–	17.8	lowest potency	17.7	–
Cc1cccc(C)c1N1N=C(C(F)(F)F)/C(=C\c2ccc(-c3ccccc3)o2)C1=O [I26]	–	6.46	–	–	PDI activity (percentage of the vehicle control) [2]: inhibited PDI activity; Mao-A activity (percentage of the vehicle control) [3]: inhibited Mao-A activity
COc1ccccc1N1N=C(C(F)(F)F)/C(=C\c2ccc(-c3ccccc3)o2)C1=O [I27]	–	8.51	–	–	–
O=C1/C(=C/c2ccc(-c3ccccc3)o2)C(C(F)(F)F)=NN1c1ccccc1Cl [I28]	–	4.79	–	–	–
O=C1/C(=C/c2ccc(-c3ccccc3)o2)C(C(F)(F)F)=NN1c1cc(F)ccc1F [I30]	–	10.7	–	10.7	–
O=C1/C(=C/c2ccc(-c3ccccc3)o2)C(C(F)(F)F)=NN1c1cccnc1 [I32]	–	19.1	–	19.1	–
O=C1/C(=C/c2ccc(-c3ccccc3)o2)C(C(F)(F)F)=NN1c1cccc(S(=O)(=O)O)c1 [I34]	–	–	retained activity	5.6	ERO1 reduction / activity in cells [7]: failed to reduce ERO1A; also recorded: completely inactive in cells; ERO1 reduction / activity in cells ([7]; listed as I34(DMSO)): inactive in cells; IC50 / potency relative to EN460 ([6]; compared with EN460): comparable to EN460; ERO1 inhibitory activity (in words) ([6]; compound in aqueous solution (physiological solution)): completely inactive; metabolic activity (MTS assay) [5]: inactive
O=C(O)c1cc(N2N=C(C(F)(F)F)/C(=C\c3ccc(-c4cccc(F)c4)o3)C2=O)ccc1Cl [I36]	–	–	did not significantly affect inhibitory activity compared to EN460; also recorded: maintained the potency	–	–
O=C(O)c1cc(N2N=C(C(F)(F)F)/C(=C\c3ccc(-c4cccc(C(F)(F)F)c4)o3)C2=O)ccc1Cl [I37]	–	5.62	did not significantly affect inhibitory activity compared to EN460; also recorded: maintained the potency	–	–
O=C(O)c1cc(N2N=C(C(F)(F)F)/C(=C\c3ccc(-c4ccc(F)cc4)o3)C2=O)ccc1Cl [I38]	–	–	loss of activity	–	–
COc1cccc(-c2ccc(/C=C3/C(=O)N(c4ccc(Cl)c(C(=O)O)c4)N=C3C(F)(F)F)o2)c1 [I39]	–	–	loss of activity	10.5	–
O=C(O)c1cc(N2N=C(C(F)(F)F)/C(=C\c3ccc(-c4ccccc4)s3)C2=O)ccc1Cl [I40]	–	–	reduced activity	12	–
